In US20120258174A1, “Methods for Treating Bacterial Infection” (Innocoll Technologies Limited, priority 2011, published 2012):

System: organisms isolated from the infected wounds at baseline
Test: Gentamicin MIC testing against all isolated pathogens up to 1024 μg/mL
Type: cell-based
Settings: 87 of 95 organisms isolated at baseline
Method: Minimum inhibitory concentration (MIC) testing was performed on all isolated pathogens to determine susceptibility to systemic concentrations of levofloxacin, linezolid, vancomycin and oxacillin for gram-positive species and levofloxacin, aztreonam and piperacillin/tazobactam for gram-negative species. Definitive gentamicin MIC testing against all isolated pathogens up to 1024 μg/mL to mimic high local concentrations were also performed.

CN[C@@H]1[C@@H](O)C(O[C@@H]2[C@@H](O)[C@H](O[C@H]3O[C@H]([C@@H](C)NC)CC[C@H]3N)[C@@H](N)C[C@H]2N)OC[C@]1(C)O (stereo partly drawn) [gentamicin, (3R,4R,5R)-2-{[(1S,2S,3R,4S,6R)-4,6-diamino-3-{[(2R,3R,6S)-3-amino-6-[(1R)-1-(methylamino)ethyl]oxan-2-yl]oxy}-2-hydroxycyclohexyl]oxy}-5-methyl-4-(methylamino)oxane-3,5-diol]
organisms whose gentamicin MIC would be exceeded by a local concentration of up to 1000 μg/mL: 92%
